The text below walks through data of ChEMBL document CHEMBL1201862, “PubChem BioAssay data set” (2004).

Among the test systems are HCC 2998; NCI-H460; OVCAR-8; NCI-H522; M19-MEL; HOP-18; SK-MEL-2; HT-29; RPMI-8226; XF498; CCRF-CEM; U-251; SR; RXF 631; RXF 393; LXFL 529.
Holding throughout (assay): DTP human tumour cell line panel, 48 h

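Compound exposure: 48 hours, 5 concentrations, 96-well plates. GI50: concentration for 50% inhibition of growth.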 Calls of active or inactive are those of the source. No stated cut-off is given here; in the data, active = GI50 up to about 1.1 µM and inactive = higher. A value given as a limit tells only on which side of the number the result lay.

The GI50 is the concentration giving 50% growth inhibition. On to `C[C@@H]1C[C@]2(C[C@@H](C)[C@H]3C(C[C@@]4(C)CCC[C@@H]5C6=C[C@H](CCC34C)OC6=CC(=O)OC5(C)C)O2)OC1=O` (stereo partly drawn), for which the GI50 in the assay on HCC 2998, with NCI-H460, with OVCAR-8, in the assay on NCI-H522, in the assay on M19-MEL and in the assay with HOP-18 was > 51.5 µM (inactive) each time. In addition, the GI50 in the assay on SK-MEL-2, with HT-29, in the assay on RPMI-8226, in the assay on XF498, in the assay on CCRF-CEM and with U-251 was > 51.5 µM (inactive) in each case.
`CCOC(=O)c1ccc(N2C(=O)/C(=C/c3ccc(N(CCC#N)CCC#N)cc3)N=C2c2cc([N+](=O)[O-])ccc2Cl)cc1`: the GI50 in the assay on SR, with HCC 2998, in the assay with OVCAR-8, in the assay with NCI-H522, in the assay with M19-MEL and in the assay on HOP-18 was > 100 µM (inactive) throughout. In addition, the GI50 in the assay on SK-MEL-2, in the assay with RXF 631, in the assay on RPMI-8226, in the assay with CCRF-CEM, in the assay with RXF 393 and with LXFL 529 was > 100 µM (inactive) each time. Further, the GI50 in the assay on U-251 was > 100 µM (inactive).
With `CCOC(=O)C1=C(C)N(C2OC(COC(C)=O)C(OC(C)=O)C(OC(C)=O)C2OC(C)=O)C(=O)NC1c1ccccc1` (stereo not drawn), the GI50 in the assay on SR is > 100 µM (inactive); with HCC 2998 it was > 100 µM (inactive); in the assay on NCI-H460 it was > 100 µM (inactive); in the assay on OVCAR-8, > 100 µM (inactive); in the assay on NCI-H522, 20 µM (inactive); with M19-MEL it was > 100 µM (inactive). Besides, the GI50 was > 100 µM (inactive) in the assay on HOP-18; > 100 µM (inactive) with SK-MEL-2; > 100 µM (inactive) in the assay on RXF 631; > 100 µM (inactive) in the assay on HT-29; 4.84 µM (inactive) in the assay on RPMI-8226; 44.9 µM (inactive) in the assay on CCRF-CEM. Further, the GI50 in the assay on LXFL 529 and in the assay with U-251 was > 100 µM (inactive) in each case.
For the compound `O=C1C(CO)=C[C@H](O)[C@H]2O[C@@H]12`, the GI50 was 311 µM (inactive) in the assay on HCC 2998; 199 µM (inactive) with NCI-H460; 137 µM (inactive) with OVCAR-8; 88.7 µM (inactive) in the assay with NCI-H522; 120 µM (inactive) with M19-MEL; > 625 µM (inactive) in the assay with HOP-18. In addition, the GI50 with SK-MEL-2 was 130 µM (inactive); in the assay with HT-29 it was 260 µM (inactive); with RPMI-8226, > 96.8 µM (inactive); with XF498, 177 µM (inactive); in the assay with CCRF-CEM it was 74.8 µM (inactive); with RXF 393, 153 µM (inactive). Besides, in the assay with U-251, the GI50 is 171 µM (inactive).
With `Cc1nn(-c2ccccc2)c(S)c1C(=O)c1ccccc1`, the GI50 in the assay with HCC 2998 is 29.8 µM (inactive); in the assay with OVCAR-8, 14.9 µM (inactive); in the assay on NCI-H522, 36.6 µM (inactive); in the assay on HOP-18, < 0.01 µM (active); in the assay on SK-MEL-2, > 100 µM (inactive); in the assay with RXF 631 it was 27 µM (inactive). For the same compound, the GI50 in the assay on HT-29 is 10 µM (inactive); in the assay with RPMI-8226, 19.1 µM (inactive); with XF498, 35.2 µM (inactive); with CCRF-CEM, 20.5 µM (inactive); with RXF 393 it was 3.41 µM (inactive); in the assay with LXFL 529, 18.2 µM (inactive). Also, the GI50 in the assay with U-251 was > 100 µM (inactive).
Turning to `CC1=NN(C(=O)c2ccc(C)cc2)C(=O)C1/N=N/c1ccccc1C(=O)O` (stereo not drawn), the GI50 in the assay with HCC 2998 was > 100 µM (inactive); in the assay on NCI-H460, > 100 µM (inactive); with OVCAR-8, > 74.5 µM (inactive); with NCI-H522, 29.6 µM (inactive); with M19-MEL it was > 100 µM (inactive); with HOP-18 it was > 100 µM (inactive). For the same compound, the GI50 in the assay on SK-MEL-2 was > 100 µM (inactive); in the assay on HT-29, > 32.1 µM (inactive); in the assay on RPMI-8226 it was 95.7 µM (inactive); with XF498, 61.8 µM (inactive); with CCRF-CEM it was 53.7 µM (inactive); in the assay on RXF 393 it was > 100 µM (inactive). For the same compound, the GI50 in the assay with U-251 is 85.7 µM (inactive).
Regarding `CCCCCCCCCCCCCCCc1ccc(OCC(O)CO)cc1` (stereo not drawn), the GI50 in the assay on SR is > 100 µM (inactive); in the assay with HCC 2998, 22.9 µM (inactive); with NCI-H460, 24.3 µM (inactive); with OVCAR-8 it was 25.7 µM (inactive); in the assay on NCI-H522, 18.2 µM (inactive); in the assay with M19-MEL, 18 µM (inactive). In addition, the GI50 in the assay with HOP-18 was > 100 µM (inactive); with SK-MEL-2, 18.9 µM (inactive); in the assay with RXF 631, 27.1 µM (inactive); with HT-29, 21.7 µM (inactive); in the assay with RPMI-8226, 18.9 µM (inactive); with XF498, 19.4 µM (inactive). In addition, the GI50 was > 100 µM (inactive) in the assay with CCRF-CEM, 18.7 µM (inactive) in the assay with RXF 393, 26.7 µM (inactive) in the assay with LXFL 529 and 23.7 µM (inactive) in the assay on U-251.
Take `OCC(O)COc1ccc(Br)cc1` (stereo not drawn): the GI50 in the assay on SR is 0.0166 µM (active); with HCC 2998, > 100 µM (inactive); in the assay with NCI-H460 it was > 10 µM (inactive); in the assay with OVCAR-8, > 100 µM (inactive); with NCI-H522, > 100 µM (inactive); in the assay on HOP-18, > 100 µM (inactive). In addition, the GI50 in the assay with SK-MEL-2, in the assay with RXF 631, in the assay on HT-29, in the assay with RPMI-8226, in the assay with XF498 and in the assay with CCRF-CEM was > 100 µM (inactive) throughout. For the same compound, the GI50 in the assay on RXF 393, with LXFL 529 and with U-251 was > 100 µM (inactive) in each case.
Regarding `COc1ccc(OC)c(/C=C/C(=O)C(C)(C)C)c1`, the GI50 with HCC 2998 was 23.2 µM (inactive); in the assay on NCI-H460, 34.8 µM (inactive); with OVCAR-8, 15.7 µM (inactive); with NCI-H522, 13.8 µM (inactive); in the assay on M19-MEL it was 16.3 µM (inactive); in the assay with HOP-18, 21.3 µM (inactive). Further, the GI50 with SK-MEL-2 is > 10 µM (inactive); in the assay on RXF 631, 32.8 µM (inactive); with HT-29 it was 27.4 µM (inactive); in the assay with RPMI-8226, 13.3 µM (inactive); in the assay with CCRF-CEM it was 14.3 µM (inactive); in the assay with RXF 393, 18.5 µM (inactive). The values for the GI50 in the assay with LXFL 529 and with U-251 were 19.2 µM (inactive) and 20 µM (inactive), respectively.
